In patent US10854312B2, “Selective peptide antagonists” (BIONIZ, LLC, priority 2013, dated 2020):
No end group written: not given here.

Tests used:
IL-6 = experiment: T1165 cell proliferation assay, IL-6; assay type: cell-based
Procedure: CTLL2 cells are cultured in the presence of 5 u/ml and 10 u/ml of IL-2 (FIG. 10A) and 2.5 ng/ml and 5 ng/ml of IL-15 (FIG. 10B) in the presence of increasing concentration of BNZ132-PEG-130. T1165 cells are cultured with 0.1 ng/ml of IL-6 (FIG. 10C) and increasing concentration of BNZ132-PEG-130. […] BNZ132-1 was conjugated to BNZ130 via a PEG24 linker. The name of the bi-antagonist peptide is BNZ132-PEG-130. FIG. 10A and FIG. 10B show the results of BNZ132-PEG-130 in IL-2 (FIG. 10A) and IL-15 (FIG. 10B) CTLL2 proliferation assay. Cells were washed and incubated with IL-2 (5 and 10 units/ml), IL-15 (2.5 and 5 ng/ml) in the presence or absence of BNZ132-PEG-130 (0.1-10 μM). Cells were then pulsed with the WST-1 reagent to measure the proliferative response for the next 6 hr (OD450). […] Cells are washed and incubated with IL-6 (0.1 ng/ml) in the presence or absence of BNZ132-PEG-130 (0.1-10 μM) for 24 hours. Cells were then pulsed with WST-1 reagent for the following 6 hr to measure OD450. The BNZ130-1 polypeptide as presented in Table 2, above, is tested for its activity in inhibiting IL-6 activity. T1165 cells that are dependent on human or mouse IL-6 for their growth in vitro are selected. The cell line is cultured in the absence of IL-6, In the presence of IL-6, in the presence of BNZ130-1, and in the presence of IL-6 and BNZ130-1.

γc-cytokines = experiment: Target cytokine spectrum within the γc-family; assay type: cell-based
IL-17A and IL-17F = experiment: Inhibition of IL-17 family members; settings: no test described

## LTHLIERSSRAVLQSLLRASRQ [BNZ130-1]
IL-6; Example 11, T1165 cells dependent on IL-6
  antagonistic activity on T1165 proliferation in the presence of IL-6: dose-dependent antagonistic activity
IL-6; Example 11, with or without IL-6
  effect on T1165 cell survival: does not affect T1165 survival

## BNZ gamma: polypeptide SEQ ID NO: 130 (Table 6) of IL-15, IL-2 and IL-9 D-helix fragments; probably the same as BNZ132-1 (IKEFLQSFIHIVQSIINT)
γc-cytokines; IL-4, IL-7 and IL-21
  γc-cytokines not inhibited: does not exhibit inhibitory activity
γc-cytokines; summary statements, BNZ132-2 and -3 data not shown
  γc-cytokines inhibited: inhibitory activity against all of IL-2, IL-15 and IL-9

## BNZ17-1: inhibitory polypeptide SEQ ID NO: 144 of IL-17A and IL-17F target region fragments (Table 7) (YSRSTSPWRYHRDRDPNRYPSDLYHAKC)
IL-17A and IL-17F
  specific inhibition within the IL-17 family: specifically inhibits IL-17A and IL-17F to the exclusion of the remaining family members
